In US12478602B2, “Method for treating a disorder” (priority 2023, dated 2025) one finds dopamine secretion data, which are given here for 1 compound.

The experiment deals with dopamine neurons in the midbrain VTA region. Description: Patch clamp of spontaneous action potential (dopamine secretion normalization). The format is in vivo, mouse. As to conditions: 250 mg/kg to 500 mg/kg. The protocol:
A mouse model of autism spectrum disorder was created with the method described in Example 1.1. The 3-week-old male mice having autism spectrum disorder were divided into a group (n=6) orally injected with 250 mg/kg of AST-001 for 2 weeks and a group (n=6) orally injected with 500 mg/kg of AST-001 for 2 weeks, and were orally administered with AST-001. The 3-week-old male normal mouse group and the autism spectrum disorder mouse group (n=6) were orally administered with water once a day for 2 weeks and then used as a control group (n=6) in the behavioral experiment. The spontaneous action potential of dopamine neurons in the midbrain VTA region of the 5-week-old normal mice and the 5-week-old mice having autism spectrum disorder was checked with a patch clamp. It turned out that mice having autism spectrum disorder show a reduced firing rate of the spontaneous action potential as compared with the normal mice (see FIG. 3A). As a result, dopamine secretion has been reduced in a mouse having autism spectrum disorder, and it can be seen that the reduced dopamine secretion has caused behavioral abnormalities related to the dopamine pathway, such as attention, reward, and cognition.
In general terms: The patch-clamp technique gives a direct electrical read-out from membranes.

As for `N[C@@H](CO)C(=O)O` [AST-001, L-serine], the dopamine secretion result was “increases”.
